From patent US6495576B2, “Aminal diones as potassium channel openers” (Abbott Laboratories, priority 2001, dated 2002)

Legend:
[1] = system: Landrace pig bladder strips; test: Functional potassium channel opening activity in isolated, field-stimulated bladder strips; settings: for Index: ED50 for P1075 divided by ED50 for test agonist in a given tissue, averaged; for EC50 / Emax: Sus scrofa; for EC50: amount causing 50% of the agent's maximal response, field stimulation 0.05 Hz, 0.5 ms, 20 volts, read-out: ED50 (the source's name); for Emax: maximal efficacy on stimulated twitch, relative to P1075
Protocol: Compound were evaluated for functional potassium channel opening activity using tissue strips obtained from Landrace pig bladders.
Landrace pig bladders were obtained from female Landrace pigs of 9-30 kg. Landrace pig were euthanized with an intraperitoneal injection of pentobarbital solution, Somlethal ®, J. A. Webster Inc. Sterling Mass. The entire bladder was removed and immediately placed into Krebs Ringer bicarbonate solution (composition, mM: NaCl, 120; NaHCO3, 20; dextrose, 11; KCl, 4.7; CaCl2, 2.5; MgSO4, 1.5; KH2PO4, 1.2; K2EDTA, 0.01, equilibrated with 5% CO2/95% O2 pH 7.4 at 37° C.). Propranolol (0.004 mM) was included in all of the assays to block β-adrenoceptors. The trigonal and dome portions were discarded. Strips 3-5 mm wide and 20 mm long were prepared from the remaining tissue cut in a circular fashion. The mucosal layer was removed. One end was fixed to a stationary glass rod and the other to a Grass FT03 transducer at a basal preload of 1.0 gram. Two parallel platinum electrodes were included in the stationary glass rod to provide field stimulation of 0.05 Hz, 0.5 milli-seconds at 20 volts. This low frequency stimulation produced a stable twitch response of 100-500 centigrams. Tissues were allowed to equilibrate for at least 60 minutes and primed with 80 mM KCl. A control concentration response curve (cumulative) was generated for each tissue using the potassium channel opener P1075 as the control agonist. […] After a 60 minute rinsing period, a concentration response curve (cumulative) was generated for the test agonist in the same fashion as that used for control agonist P1075. The maximal efficacy of each compound (expressed as % relative to P1075) is reported. The amount of agent necessary to cause 50% of the agent's maximal response (ED50) was calculated using “ALLFIT” (DeLean et al., Am. J. Physiol., 235, E97 (1980)), hereby incorporated by reference. Agonist potencies were also expressed as an index relative to P1075. The index was calculated by dividing the ED50 for P1075 by the ED50 for the test agonist in a given tissue. Each tissue was used for only one test agonist, and the indices obtained from each tissue were averaged to provide an average index of potency.

[2] = system: primary cultured guinea-pig urinary bladder (GPB) cells; test: Membrane hyperpolarization (MHP) assay, DiBAC(4)3 fluorescence on FLIPR; assay type: cell-based; settings: for Maximal Response (%P1075): maximal steady-state hyperpolarization, normalized to response with 10 μM P1075 (100%); for EC50: Cavia porcellus, concentration eliciting 50% of the maximal response of the test sample
Protocol: Compounds were evaluated for potassium channel opening activity using primary cultured guinea-pig urinary bladder (GPB) cells.
For the preparation of urinary bladder smooth muscle cells, urinary bladders were removed from male guinea-pigs (Hartley, Charles River, Wilmington, Mass.) weighing 300-400 g and placed in ice-cold Ca^2+-free Krebs solution (composition, mM: KCl, 2.7, KH2PO4, 1.5; NaCl, 75, Na2HPO4, 9.6; Na2HPO4. 7H2O, 8; MgSO4, 2; glucose, 5; HEPES, 10; pH 7.4). Cells were isolated by enzymatic dissociation as previously described with minor modifications (Klockner and Isenberg, Pflugers Arch. (1985), 405, 329-339), hereby incorporated by reference. The bladder was cut into small sections and incubated in 5 mL of the Kreb's solution containing 1 mg/mL collagenase (Sigma, St. Louis, Mo.) and 0.2 mg/mL pronase (Calbiochem, La Jolla, Calif.) with continuous stirring in a cell incubator for 30 minutes. The mixture was then centrifuged at 1300×g for 5 minutes, and the pellet resuspended in Dulbecco's PBS (GIBCO, Gaithersburg, Md.) and recentrifuged to remove residual enzyme. The cell pellet was resuspended in 5 mL growth media (composition: Dulbecco's modified Eagle's medium supplemented with 10% fetal bovine serum, 100 units/mL penicillin, 100 units/mL streptomycin and […] amphotericin B) and further dissociated by pipetting the suspension through a flame-polished Pasteur pipette and passing it through a polypropylene mesh membrane (Spectrum, Houston, Tex.). The cell density was adjusted to 100,000 cells/mL by resuspension in growth media Cells were plated in clear-bottomed black 96-well plates (Packard) for membrane potential studies at a density of 20,000 cells/well and maintained in a cell incubator with 90% air: 10% CO2 until confluent. Cells were confirmed to be of smooth muscle type by cytoskeletal staining using a monoclonal mouse anti human-α-smooth muscle actin (Biomeda, Foster City, Calif.).
Functional activity at potassium channels was measured by evaluating changes in membrane potential using the bis-oxonol dye DiBAC(4)3 (Molecular Probes) in a 96-well cell-based kinetic assay system, Fluorescent Imaging Plate Reader (FLIPR) (K. S. Schroeder et al., J. Biomed. Screen., v. 1 pp. 75-81 (1996)), hereby incorporated by reference. DiBAC(4)3 is an anionic potentiometric probe which partitions between cells and extracellular solution in a membrane potential-dependent manner. With increasing membrane potential (for example, K^+ depolarization), the probe further partitions into the cell; this is measured as an increase in fluorescence due to dye interaction with intracellular lipids and proteins. Conversely, decreasing membrane potential (hyperpolarization by potassium channel openers) evokes a decrease in fluorescence.
Confluent guinea-pig urinary bladder cells cultured in black clear-bottomed 96-well plates were rinsed twice with […] assay buffer (composition, mM: HEPES, 20; NaCl, 120; KCl, 2; CaCl2, 2, MgCl2, 1, glucose, 5; pH 7.4 at 25° C.) containing 5 μM DiBAC(4)3 and incubated with […] of the buffer in a cell incubator for 30 minutes at 37° C. to ensure dye distribution across the membrane. After recording the baseline fluorescence for 5 minutes, the reference or test compounds, prepared at 10 times the concentration in the assay buffer, were added directly to the wells. Changes in fluorescence were monitored for an additional 25 minutes. Hyperpolarization responses were corrected for any background noise and were normalized to the response observed with 10 μM of the reference compound P1075 (assigned as 100%), a potent opener of smooth muscle KATP channels (Quast et al., Mol. Phanmacol., v. 43 pp. 474-481 (1993)).
Routinely, five concentrations of P1075 or test compounds (log or half-log dilutions) were evaluated and the maximal steady-state hyperpolarization values (expressed as % relative to P1075) plotted as a function of concentration. […]

melting point [°C]	SMILES	Index [1]	Maximal Response (%P1075) [2] [%P1075]	also measured
177 to 178	CC(C)(C)C(NC(=O)c1ccc(I)cc1)NS(=O)(=O)Nc1cccnc1 (centres unmarked) [Example 34, N-(2,2-Dimethyl-1-{[(3-pyridinylamino)sulfonyl]amino}propyl)-4-iodobenzamide]	–	–	–
–	Cc1ccc(C(=O)NC(Nc2c(Nc3cccnc3)c(=O)c2=O)C(C)(C)C)cc1 (centres unmarked) [Example 1, N-(1-{[3,4-Dioxo-2-(3-pyridinylamino)-1-cyclobuten-1-yl]amino}-2,2-dimethylpropyl)-4-methylbenzamide]	0.008	91	–
–	Cc1cccc(C(=O)NC(Nc2c(Nc3cccnc3)c(=O)c2=O)C(C)(C)Cc2ccccc2)c1 (centres unmarked) [Example 60, N-(1-{[3,4-Dioxo-2-(3-pyridinylamino)-1-cyclobuten-1-yl]amino}-2,2-dimethyl-3-phenylpropyl)-3-methylbenzamide]	0.87	83	EC50 [1]: 680 nM; Emax [1]: 88%; EC50 [2]: 93 nM
–	CC(C)(C)C(NC(=O)c1ccc(Cl)cc1)Nc1c(Nc2cccnc2)c(=O)c1=O (centres unmarked) [Example 2, 4-Chloro-N-(1-{[3,4-dioxo-2-(3-pyridinylamino)-1-cyclobuten-1-yl]amino}-2,2-dimethylpropyl)benzamide]	0.047	108	–
215 to 216	CC(C)(C)C(NC(=O)c1cc(F)cc(F)c1)Nc1c(Nc2cccnc2Cl)c(=O)c1=O (single isomer, unassigned; (+)) [Example 110, (+) N-(1-{[3,4-Dioxo-2-(2-chloro3-pyridinylamino)-1-cyclobuten-1-yl]amino}-2,2-dimethylpropyl)-3,5-difluorobenzamide]	–	–	–
–	C=CCOCC(CC)(COCC=C)C(NC(=O)c1ccc(Cl)cc1)Nc1c(Nc2cccnc2)c(=O)c1=O (centres unmarked) [Example 20, N-(2,2-Bis[(allyloxy)methyl]-1-{[3,4-dioxo-2-(3-pyridinylamino)-1-cyclobuten-1-yl]amino}butyl)-4-chlorobenzamide]	–	98	–
233 to 235	COc1ncccc1Nc1c(NC(NC(=O)c2cccc(C)c2)C(C)(C)Cc2ccccc2)c(=O)c1=O (centres unmarked) [Example 83, N-[1-({2-[(2-Methoxypyridin-3-yl)amino]-3,4-dioxo-1-cyclobuten-1-yl}amino)-2,2-dimethyl-3-phenylpropyl]-3-methylbenzamide]	–	–	–
215 to 217	CC(C)(C)C(NC(=O)c1cc(F)cc(F)c1)Nc1c(Nc2cccnc2Cl)c(=O)c1=O (centres unmarked) [Example 110A, N-(1-{[3,4-Dioxo-2-(2-chloro3-pyridinylamino)-1-cyclobuten-1-yl]amino}-2,2-dimethylpropyl)-3,5-difluorobenzamide]	–	–	–
221 to 223	COc1ncccc1Nc1c(NC(NC(=O)c2cc(F)cc(F)c2)C(C)(C)C)c(=O)c1=O (centres unmarked) [Example 82, 3,5-Difluoro-N-[1-({2-[(2-methoxypyridin-3-yl)amino]-3,4-dioxo-1-cyclobuten-1-yl}amino)-2,2-dimethylpropyl]benzamide]	–	–	–
213 to 214	CC(C)(C)C(NC(=O)c1cccc(Cl)c1)Nc1c(Nc2cccnc2Cl)c(=O)c1=O (centres unmarked) [Example 95, 3-Chloro-N-[1-({2-[(2-chloropyridin-3-yl)amino]-3,4-dioxo-1-cyclobuten-1-yl}amino)-2,2-dimethylpropyl]benzamide]	–	–	–
–	CC(C)(Cc1ccccc1)C(NC(=O)c1ccc(Cl)cc1)Nc1c(Nc2cccnc2)c(=O)c1=O (centres unmarked) [Example 18, 4-Chloro-N-(-1-{[3,4-dioxo-2-(3-pyridinylamino)-1-cyclobuten-1-yl]amino}-2,2-dimethyl-3-phenylpropyl)benzamide]	0.055	97	EC50 [1]: 17000 nM; Emax [1]: 62%; EC50 [2]: 510 nM
–	CCC(CC)(CCC#N)C(NC(=O)c1ccc(Cl)cc1)Nc1c(Nc2cccnc2)c(=O)c1=O (centres unmarked) [Example 19, 4-Chloro-N-(4-cyano-1-{[3,4-dioxo-2-(3-pyridinylamino)-1-cyclobuten-1-yl]amino}-2,2-diethylbutyl)benzamide]	–	<20	–
–	C=CCC(C)(C)C(NC(=O)c1ccc(Cl)cc1)Nc1c(Nc2cccnc2)c(=O)c1=O (centres unmarked) [Example 17, 4-Chloro-N-(-1-{[3,4-dioxo-2-(3-pyridinylamino)-1-cyclobuten-1-yl]amino}-2,2-dimethyl-4-pentenyl)benzamide]	0.028	96	–
233 to 234	CC(C)(C)C(NC(=O)c1cc(Cl)cc(Cl)c1)Nc1c(Nc2cncc(C(F)(F)F)c2)c(=O)c1=O (centres unmarked) [Example 53, 3,5-Dichloro-N-{1-[(3,4-dioxo-2-{[5-(trifluoromethyl)pyridin-3-yl]amino}-1-cyclobuten-1-yl)amino]-2,2-dimethylpropyl}benzamide]	–	–	–
224 to 226	COc1ncccc1Nc1c(NC(NC(=O)c2cccc(C)c2)C(C)(C)C)c(=O)c1=O (centres unmarked) [Example 81, N-[1-({2-[(2-Methoxypyridin-3-yl)amino]3,4-dioxo-1-cyclobuten-1-yl}amino)-2,2-dimethylpropyl]-3-methylbenzamide]	–	–	–
